According to ChEMBL document CHEMBL5370604, “Identification of Micrococcin P2-Derivatives as Antibiotic Candidates against Two Gram-Positive Pathogens” (J Med Chem, 2023):
Values after ≈ are worked out from the molar mass of the structure shown. Active and inactive are the calls of the source. The rule behind the calls is not given here.

Key:
[1] = Effective permeability of the compound at pH 7.4 at 25 uM incubated for 5 hrs by skin PAMPA analysis; assay type: ADME; settings: pH 7.4, 5 h
Staphylococcus aureus [2] = assay: Antibacterial activity against Staphylococcus aureus ATCC 4330 assessed as inhibition of bacterial growth measured after 16 to 24 hrs by CLSI based broth dilution method; assay type: functional; settings: time 16-24 hrs
Staphylococcus aureus [3] = assay: Antibacterial activity against clinical isolate methicillin-resistant Staphylococcus aureus assessed as log reduction in CFU/ml at 16 times of MIC measured after 24 hrs by time killing analysis; assay type: functional
[4] = Aqueous kinetic solubility of the compound at pH 7.4 incubated for 2 hrs by UPLC-MS analysis; assay type: physicochemical; settings: read-out: Kinetic_solubility
[5] = Effective permeability of the compound at pH 5.5 at 25 uM incubated for 5 hrs by skin PAMPA analysis; assay type: ADME; settings: pH 5.5, 5 h
Clostridioides difficile [6] = assay: Antibacterial activity against Clostridioides difficile ATCC 43255 assessed as inhibition of bacterial growth measured after 24 hrs by CLSI based broth dilution method; assay type: functional
Staphylococcus aureus [7] = assay: In vivo antibacterial activity against methicillin-resistant Staphylococcus aureus KCCM 40511 ATCC 33593 infected in soft-skin tissue BALB/c mouse infection model assessed as reduction in total number of bacteria in wound area treated as ointment administered twice at 6 and 12 hrs and measured after 24 hrs relative to mupirocin; assay type: functional
Staphylococcus aureus [8] = assay: Antibacterial activity against methicillin-resistant Staphylococcus aureus assessed as inhibition of bacterial growth measured after 16 to 24 hrs by CLSI based broth dilution method; assay type: functional; settings: time 16-24 hrs
Clostridioides difficile [9] = assay: Antibacterial activity against Clostridioides difficile NT/ST221/A+B+CDT+ assessed as inhibition of bacterial growth measured after 24 hrs by CLSI based broth dilution method; assay type: functional
[10] = (§1) Toxicity in colitis-induced C57BL/6J mouse infected with Clostridioides difficile ribotype 027 assessed as effect on gut micro-biome at 30 mg/kg, po qd pretreated with clindamycin followed by infected with […] and measured on day 6 post treatment by RNA sequencing analysis; assay type: organism-based; settings: in vivo, 144 h, time 6 day
Clostridioides difficile [11] = assay: Antibacterial activity against Clostridioides difficile RT027/ST1/A+B+CDT+ assessed as inhibition of bacterial growth measured after 24 hrs by CLSI based broth dilution method; assay type: functional
[12] = Genotoxicity in Salmonella typhimurium TA100 incubated for 90 min by Ames test; assay type: toxicity; settings: salmonella enterica subsp. enterica serovar typhimurium, 1.5 h
Clostridioides difficile [13] = assay: Antibacterial activity against Clostridioides difficile NT/ST67/A+B+CDT+ assessed as inhibition of bacterial growth measured after 24 hrs by CLSI based broth dilution method; assay type: functional
[14] = target: Voltage-gated inwardly rectifying potassium channel KCNH2 (Homo sapiens, UniProt Q12809); assay: Inhibition of hERG expressed in HEK293 cells at 10 uM incubated for 5 mins by whole cell patch clamp assay; assay type: toxicity, cell-based; settings: hek293, 5 min
Clostridioides difficile [15] = assay: Antibacterial activity against Clostridioides difficile RT014/ST14/A+B+ assessed as inhibition of bacterial growth measured after 24 hrs by CLSI based broth dilution method; assay type: functional
[16] = Genotoxicity in Salmonella typhimurium TA98 incubated for 90 min in presence of S9 fraction by Ames test; assay type: toxicity, subcellular; settings: salmonella enterica subsp. enterica serovar typhimurium, s9, 1.5 h
Clostridioides difficile [17] = assay: Antibacterial activity against Clostridioides difficile RT017/ST37/A-B+ assessed as inhibition of bacterial growth measured after 24 hrs by CLSI based broth dilution method; assay type: functional
[18] = Genotoxicity in Salmonella typhimurium TA100 incubated for 90 min in presence of S9 fraction by Ames test; assay type: toxicity, subcellular; settings: salmonella enterica subsp. enterica serovar typhimurium, s9, 1.5 h
Clostridioides difficile [19] = assay: Antibacterial activity against Clostridioides difficile ribotype 027 infected in colitis induced C57BL/6J mouse assessed as increase in survival rate without recurrence at 30 mg/kg, po qd pretreated with clindamycin followed by […] infection and compound addition measured on day 5; assay type: functional; settings: time 5.0 day
[20] = as §1, with “as increase in Klebsiella proportion in” for “as effect on”, “gut” for “gut micro-biome”, “day 20” for “day 6”, “analysis (reference value: 0%)” for “analysis”; assay type: organism-based; settings: in vivo, 480 h, time 20 day
Clostridioides difficile [21] = assay: Antibacterial activity against Clostridioides difficile RT012/ST54/A+B+ assessed as inhibition of bacterial growth measured after 24 hrs by CLSI based broth dilution method; assay type: functional
Enterococcus faecium = assay: Antibacterial activity against Enterococcus faecium ATCC 19434 assessed as inhibition of bacterial growth measured after 24 hrs by CLSI based broth dilution method; assay type: functional
Clostridioides difficile [22] = assay: Antibacterial activity against Clostridioides difficile RT002/ST8/A+B+ assessed as inhibition of bacterial growth measured after 24 hrs by CLSI based broth dilution method; assay type: functional
Clostridioides difficile [23] = assay: Antibacterial activity against Clostridioides difficile RT018/ST17/A+B+ assessed as inhibition of bacterial growth measured after 24 hrs by CLSI based broth dilution method; assay type: functional
[24] = (§2) Toxicity in colitis-induced C57BL/6J mouse infected with Clostridioides difficile ribotype 027 assessed as effect on Acinetobacter proportion in gut at 30 mg/kg, po qd pretreated with clindamycin followed by infected with […] and measured on day 6 post treatment by RNA sequencing analysis; assay type: organism-based; settings: in vivo, 144 h, time 6 day
[25] = Toxicity in colitis-induced C57BL/6J mouse infected with Clostridioides difficile ribotype 027 assessed as effect on Firmicutes proportion in gut at 30 mg/kg, po qd pretreated with clindamycin followed by infected with […] and measured on day 6 post treatment by RNA sequencing analysis; assay type: organism-based; settings: in vivo, 144 h, time 6 day
Enterococcus faecalis [26] = assay: Antibacterial activity against Enterococcus faecalis ATCC 29212 assessed as inhibition of bacterial growth measured after 24 hrs by CLSI based broth dilution method; assay type: functional
Clostridioides difficile [27] = assay: Antibacterial activity against Clostridioides difficile RT078/ST11/A+B+CDT+ assessed as inhibition of bacterial growth measured after 24 hrs by CLSI based broth dilution method; assay type: functional
Clostridioides difficile [28] = assay: Antibacterial activity against Clostridioides difficile RT001/ST3/A+B+ assessed as inhibition of bacterial growth measured after 24 hrs by CLSI based broth dilution method; assay type: functional
[29] = as §2, with “increase in Escherichia” for “effect on Acinetobacter”, “analysis (reference value: 0%)” for “analysis”; assay type: organism-based; settings: in vivo, 144 h, time 6 day
Clostridioides difficile [30] = assay: Antibacterial activity against Clostridioides difficile RT293/ST129/A+B+ assessed as inhibition of bacterial growth measured after 24 hrs by CLSI based broth dilution method; assay type: functional
[31] = as §2, with “as increase in Enterococcus” for “as effect on Acinetobacter”, “day 20” for “day 6”, “analysis (reference value: 0%)” for “analysis”; assay type: organism-based; settings: in vivo, 480 h, time 20 day
[32] = as §2, with “increase in Enterococcus” for “effect on Acinetobacter”, “analysis (reference value: 0%)” for “analysis”; assay type: organism-based; settings: in vivo, 144 h, time 6 day
Enterococcus faecalis [33] = assay: Antibacterial activity against Clinical isolate Enterococcus faecalis assessed as inhibition of bacterial growth measured after 24 hrs by CLSI based broth dilution method; assay type: functional
Clostridioides difficile [34] = assay: Antibacterial activity against Clostridioides difficile ribotype 027 infected in colitis induced C57BL/6J mouse assessed as survival rate at 30 mg/kg, po qd pretreated with clindamycin followed by […] infection and compound addition measured on day 5; assay type: functional; settings: ribotype 027, 120 h, time 5 day
Clostridioides difficile [35] = assay: Antibacterial activity against Clostridioides difficile RT130/ST5/A+B+CDT+ assessed as inhibition of bacterial growth measured after 24 hrs by CLSI based broth dilution method; assay type: functional
[36] = as §2, with “increase in Klebsiella” for “effect on Acinetobacter”, “analysis (reference value: 0%)” for “analysis”; assay type: organism-based; settings: in vivo, 144 h, time 6 day
[37] = Genotoxicity in Salmonella typhimurium TA98 incubated for 90 min by Ames test; assay type: toxicity; settings: salmonella enterica subsp. enterica serovar typhimurium, 1.5 h
Clostridioides difficile [38] = assay: Antibacterial activity against Clostridioides difficile RT015/ST35/A+B+ assessed as inhibition of bacterial growth measured after 24 hrs by CLSI based broth dilution method; assay type: functional
[39] = as §2, with “as increase in Escherichia” for “as effect on Acinetobacter”, “day 20” for “day 6”, “analysis (reference value: 0%)” for “analysis”; assay type: organism-based; settings: in vivo, 480 h, time 20 day

Voltage-gated inwardly rectifying potassium channel KCNH2, sequence (Q12809 whole entry): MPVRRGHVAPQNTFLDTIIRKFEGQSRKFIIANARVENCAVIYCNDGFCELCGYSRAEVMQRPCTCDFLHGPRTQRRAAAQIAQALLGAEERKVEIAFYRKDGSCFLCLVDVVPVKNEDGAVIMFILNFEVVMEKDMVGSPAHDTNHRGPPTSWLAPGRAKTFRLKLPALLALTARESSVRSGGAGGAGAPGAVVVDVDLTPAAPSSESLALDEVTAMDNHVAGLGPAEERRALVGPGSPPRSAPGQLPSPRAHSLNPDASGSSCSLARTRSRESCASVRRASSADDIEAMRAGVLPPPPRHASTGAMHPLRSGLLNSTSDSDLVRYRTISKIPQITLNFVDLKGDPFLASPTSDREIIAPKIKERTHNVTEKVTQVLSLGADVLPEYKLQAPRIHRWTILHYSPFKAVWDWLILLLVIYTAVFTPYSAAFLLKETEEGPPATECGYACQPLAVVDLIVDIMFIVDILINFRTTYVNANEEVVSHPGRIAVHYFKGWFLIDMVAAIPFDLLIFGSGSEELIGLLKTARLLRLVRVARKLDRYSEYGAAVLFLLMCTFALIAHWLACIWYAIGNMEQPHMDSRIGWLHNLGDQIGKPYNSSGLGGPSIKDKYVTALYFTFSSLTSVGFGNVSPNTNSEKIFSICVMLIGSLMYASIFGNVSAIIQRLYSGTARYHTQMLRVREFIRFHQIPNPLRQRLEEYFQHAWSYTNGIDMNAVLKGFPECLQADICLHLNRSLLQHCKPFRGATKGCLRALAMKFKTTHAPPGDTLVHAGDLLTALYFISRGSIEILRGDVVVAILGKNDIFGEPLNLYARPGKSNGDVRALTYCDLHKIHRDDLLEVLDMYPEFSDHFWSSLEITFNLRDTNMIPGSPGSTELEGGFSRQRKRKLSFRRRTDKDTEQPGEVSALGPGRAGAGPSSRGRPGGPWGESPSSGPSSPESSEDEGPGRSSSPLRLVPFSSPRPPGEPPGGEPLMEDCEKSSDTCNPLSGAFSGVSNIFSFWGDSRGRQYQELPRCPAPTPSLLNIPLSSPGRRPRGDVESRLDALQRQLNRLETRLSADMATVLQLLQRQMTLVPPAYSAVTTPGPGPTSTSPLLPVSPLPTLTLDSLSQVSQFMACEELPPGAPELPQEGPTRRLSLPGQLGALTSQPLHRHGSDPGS

For `C/C=C(\NC(=O)c1csc(-c2csc(-c3ccc4c(n3)-c3csc(n3)[C@H]([C@@H](C)O)NC(=O)c3csc(n3)[C@H](C(C)C)NC(=O)c3csc(n3)/C(=C/C)NC(=O)[C@H]([C@@H](C)O)NC(=O)c3csc-4n3)n2)n1)C(=O)NCCN1CCN(C(C)C)CC1`, the Peff [1] was “Impermeable”, the MIC (Staphylococcus aureus [2]) was 0.5 µg/mL (≈ 0.403 µM) and the Activity (Staphylococcus aureus [3]) was “>=3 log10CFU/ml”. The solubility kinetic at 2 h [4] was 150 µg/mL (≈ 121 µM), the Peff [5] was “Impermeable” and the MIC (Clostridioides difficile [6]) was 0.5 µg/mL (≈ 0.403 µM). For the same compound, the “fold change (FC)” value (Staphylococcus aureus [7]) was 1000, the MIC50 (Staphylococcus aureus [8]) was 2 µg/mL (≈ 1.61 µM) and the MIC90 (Staphylococcus aureus [8]) was 4 µg/mL (≈ 3.22 µM).

In the case of `C/C=C(\NC(=O)c1csc(-c2csc(-c3ccc4c(n3)-c3csc(n3)[C@H]([C@@H](C)O)NC(=O)c3csc(n3)[C@H](C(C)C)NC(=O)c3csc(n3)/C(=C/C)NC(=O)[C@H]([C@@H](C)O)NC(=O)c3csc-4n3)n2)n1)C(=O)NCCn1c([N+](=O)[O-])cnc1C`, the MIC (Clostridioides difficile [9]) is reported as 0.125 µg/mL (≈ 0.101 µM), the Activity [10] is reported as “Non-Toxic” and the MIC (Clostridioides difficile [11]) is reported as 0.125 µg/mL (≈ 0.101 µM). For the same compound, the Activity [12] was “Non-Toxic”, the MIC (Clostridioides difficile [13]) was 0.125 µg/mL (≈ 0.101 µM) and the “inhibition (INH)” value [14] was “Active”. For the same compound, the MIC (Clostridioides difficile [15]) was 0.125 µg/mL (≈ 0.101 µM), the Activity [16] was “Non-Toxic” and the MIC (Clostridioides difficile [17]) was 0.125 µg/mL (≈ 0.101 µM). For the same compound, the Activity [18] was “Non-Toxic”, the MIC (Staphylococcus aureus [2]) was 0.25 µg/mL (≈ 0.202 µM) and the Activity (Clostridioides difficile [19]) was “Active”. For the same compound, the Activity [20] was 0.15%, the MIC (Clostridioides difficile [21]) was 0.125 µg/mL (≈ 0.101 µM) and the MIC (Enterococcus faecium) was 0.25 µg/mL (≈ 0.202 µM). For the same compound, the MIC (Clostridioides difficile [22]) was 0.125 µg/mL (≈ 0.101 µM), the MIC (Clostridioides difficile [23]) was 0.125 µg/mL (≈ 0.101 µM) and the Activity [24] was “Non-Toxic”. The Activity [25] was “Non-Toxic”, the MIC (Enterococcus faecalis [26]) was 0.25 µg/mL (≈ 0.202 µM) and the MIC (Clostridioides difficile [27]) was 0.125 µg/mL (≈ 0.101 µM). It also gave an MIC (Clostridioides difficile [28]) of 0.125 µg/mL (≈ 0.101 µM), an MIC (Clostridioides difficile [6]) of 0.125 µg/mL (≈ 0.101 µM) and an Activity [29] of 2.88%. It also gave an MIC (Clostridioides difficile [30]) of 0.125 µg/mL (≈ 0.101 µM), an Activity [31] of 1.62% and an Activity [32] of 0.52%. It also gave an MIC (Enterococcus faecalis [33]) of 0.25 µg/mL (≈ 0.202 µM), a survival at 30 mg/kg (Clostridioides difficile [34]) of 80% and an MIC (Clostridioides difficile [35]) of 0.125 µg/mL (≈ 0.101 µM). For the same compound, the Activity [36] was 0.94%, the Activity [37] was “Non-Toxic” and the MIC (Clostridioides difficile [38]) was 0.125 µg/mL (≈ 0.101 µM). The Activity [39] was 0.93%.
